Data reported in US20120197004A1, “NOVEL ANTI-MICROBIAL PEPTIDOMIMETIC COMPOUNDS AND METHODS TO CALCULATE ANTI-MICROBIAL ACTIVITY” (priority 2006, published 2012).
Where a SMILES comes first, the peptide text is derived from it. [ ]: non-standard residue; d: D form. Phe(4-NO2) = N[C@@H](Cc1ccc([N+](=O)[O-])cc1)C(=O)O; Oic = O=C(O)[C@@H]1C[C@@H]2CCCC[C@@H]2N1; Phe(4-F) = N[C@@H](Cc1ccc(F)cc1)C(=O)O; Tic = O=C(O)[C@@H]1Cc2ccccc2CN1; Dap = NC[C@H](N)C(=O)O; βAla = NCCC(=O)O

System: Staphylococcus aureus Methicillin/Gentamicin/Tetracycline Resistant (ATCC 33592)
Conditions: in vitro MIC; tested at 100, 30, 10, 3, 1, 0.3 and 0.1 μM in 1% DMSO

| Compound | Minimum Inhibitory Concentration Staphylococcus aureus ME/GM/TC resistant [µM] |
| --- | --- |
| CC[C@H](C)[C@H](NC(=O)CN)C(=O)NCC(=O)N[C@@H](CCCCN)C(=O)N[C@@H](Cc1ccccc1)C(=O)N[C@@H](CC(C)C)C(=O)N[C@@H](Cc1c[nH]cn1)C(=O)N[C@@H](CO)C(=O)N[C@@H](C)C(=O)NCC(=O)N[C@@H](CCCCN)C(=O)N[C@@H](Cc1ccccc1)C(=O)NCC(=O)N[C@@H](CCCCN)C(=O)N[C@@H](C)C(=O)N[C@@H](Cc1ccccc1)C(=O)N[C@H](C(=O)NCC(=O)N[C@@H](CCC(=O)O)C(=O)N[C@H](C(=O)N[C@@H](CCSC)C(=O)N[C@@H](CCCCN)C(=O)N[C@@H](CO)C(=O)O)[C@@H](C)CC)C(C)C [Magainin I, magainin I, reference compound] (H-GIGKFLHSAGKFGKAFVGEIMKS-OH; N-terminus and C-terminus assumed) | > 100 |

System: Mycobacterium ranae (ATCC 110)
Conditions: ATCC 110

| Compound | Minimum Inhibitory Concentration Mycobacterium ranae [µM] |
| --- | --- |
| CC(=O)NCCC(=O)N[C@@H](Cc1ccc(F)cc1)C(=O)N1Cc2ccccc2C[C@H]1C(=O)N1[C@H](C(=O)NCCC(=O)N[C@@H](CCCCN)C(=O)N2Cc3ccccc3C[C@H]2C(=O)N2[C@H](C(=O)NCCC(=O)N[C@@H](Cc3ccc(F)cc3)C(=O)N3Cc4ccccc4C[C@H]3C(=O)N3[C@H](C(=O)NCCC(=O)N[C@@H](CCCCN)C(=O)N4Cc5ccccc5C[C@H]4C(=O)N[C@@H](CN)C(=O)N[C@@H](CN)C(=O)N[C@@H](CN)C(=O)N[C@@H](CN)C(N)=O)C[C@@H]4CCCC[C@@H]43)C[C@@H]3CCCC[C@@H]32)C[C@@H]2CCCC[C@@H]21 [FKAB-1Gv, Ac-βAla-Fpa-Tic-Oic-βAla-K-Tic-Oic-βAla-Fpa-Tic-Oic-βAla-K-Tic-Dpr-Dpr-Dpr-Dpr-CONH2] (Ac-[βAla][Phe(4-F)][Tic][Oic][βAla]K[Tic][Oic][βAla][Phe(4-F)][Tic][Oic][βAla]K[Tic][Dap][Dap][Dap][Dap]-NH2) | 30 |
| CC(=O)NCC(=O)N[C@@H](Cc1ccccc1)C(=O)N1Cc2ccccc2C[C@H]1C(=O)N1[C@H](C(=O)NCC(=O)N[C@H](CCCCN)C(=O)N2Cc3ccccc3C[C@H]2C(=O)N2[C@H](C(=O)NCC(=O)N[C@@H](Cc3ccccc3)C(=O)N3Cc4ccccc4C[C@H]3C(=O)N3[C@H](C(=O)NCC(=O)N[C@H](CCCCN)C(=O)N4Cc5ccccc5C[C@H]4C(=O)N[C@@H](CCCCN)C(=O)N[C@@H](CCCCN)C(=O)N[C@@H](CCCCN)C(=O)N[C@@H](CCCCN)C(N)=O)C[C@@H]4CCCC[C@@H]43)C[C@@H]3CCCC[C@@H]32)C[C@@H]2CCCC[C@@H]21 [FKAB-1G3, Ac-GF-Tic-Oic-G-dK-Tic-Oic-GF-Tic-Oic-G-dK-Tic-KKKK-CONH2] (Ac-GF[Tic][Oic]G[dK][Tic][Oic]GF[Tic][Oic]G[dK][Tic]KKKK-NH2) | 10 |
| CC(=O)N[C@@H](CCCCN)C(=O)N[C@@H](CCCCN)C(=O)N[C@@H](CCCCN)C(=O)N[C@@H](CCCCN)C(=O)NCC(=O)N[C@@H](Cc1ccccc1)C(=O)N1Cc2ccccc2C[C@H]1C(=O)N1[C@H](C(=O)NCC(=O)N[C@@H](CCCCN)C(=O)N2Cc3ccccc3C[C@H]2C(=O)N2[C@H](C(=O)NCC(=O)N[C@@H](Cc3ccccc3)C(=O)N3Cc4ccccc4C[C@H]3C(=O)N3[C@H](C(=O)NCC(=O)N[C@@H](CCCCN)C(=O)N4Cc5ccccc5C[C@H]4C(N)=O)C[C@@H]4CCCC[C@@H]43)C[C@@H]3CCCC[C@@H]32)C[C@@H]2CCCC[C@@H]21 [FBAB-1Gq, Ac-KKKK-GF-Tic-Oic-GK-Tic-Oic-GF-Tic-Oic-GK-Tic-CONH2] (Ac-KKKKGF[Tic][Oic]GK[Tic][Oic]GF[Tic][Oic]GK[Tic]-NH2) | 3 |
| CC(=O)NCC(=O)N[C@H](Cc1ccccc1)C(=O)N1Cc2ccccc2C[C@H]1C(=O)N1[C@H](C(=O)NCC(=O)N[C@@H](CCCCN)C(=O)N2Cc3ccccc3C[C@H]2C(=O)N2[C@H](C(=O)NCC(=O)N[C@H](Cc3ccccc3)C(=O)N3Cc4ccccc4C[C@H]3C(=O)N3[C@H](C(=O)NCC(=O)N[C@@H](CCCCN)C(=O)N4Cc5ccccc5C[C@H]4C(=O)N[C@@H](CCCCN)C(=O)N[C@@H](CCCCN)C(=O)N[C@@H](CCCCN)C(=O)N[C@@H](CCCCN)C(N)=O)C[C@@H]4CCCC[C@@H]43)C[C@@H]3CCCC[C@@H]32)C[C@@H]2CCCC[C@@H]21 [FKAB-1G2, Ac-G-dF-Tic-Oic-GK-Tic-Oic-G dF-Tic-Oic-GK-Tic-KKKK-CONH2] (Ac-G[dF][Tic][Oic]GK[Tic][Oic]G[dF][Tic][Oic]GK[Tic]KKKK-NH2) | 10 |
| CC(=O)NCC(=O)N[C@@H](Cc1ccc([N+](=O)[O-])cc1)C(=O)N1Cc2ccccc2C[C@H]1C(=O)N1[C@H](C(=O)NCC(=O)N[C@@H](CCCCN)C(=O)N2Cc3ccccc3C[C@H]2C(=O)N2[C@H](C(=O)NCC(=O)N[C@@H](Cc3ccc([N+](=O)[O-])cc3)C(=O)N3Cc4ccccc4C[C@H]3C(=O)N3[C@H](C(=O)NCC(=O)N[C@@H](CCCCN)C(=O)N4Cc5ccccc5C[C@H]4C(=O)N[C@@H](CCCCN)C(=O)N[C@@H](CCCCN)C(=O)N[C@@H](CCCCN)C(=O)N[C@@H](CCCCN)C(N)=O)C[C@@H]4CCCC[C@@H]43)C[C@@H]3CCCC[C@@H]32)C[C@@H]2CCCC[C@@H]21 [FKAB-1Go2, Ac-G-Nph-Tic-Oic-GK-Tic-Oic-G-Nph-Tic-Oic-GK-Tic-KKKK-CONH2] (Ac-G[Phe(4-NO2)][Tic][Oic]GK[Tic][Oic]G[Phe(4-NO2)][Tic][Oic]GK[Tic]KKKK-NH2) | 10 |
| CC(=O)NCC(=O)N[C@@H](Cc1ccccc1)C(=O)N1Cc2ccccc2C[C@H]1C(=O)N1Cc2ccccc2C[C@H]1C(=O)NCC(=O)N[C@@H](CCCCN)C(=O)N1Cc2ccccc2C[C@H]1C(=O)N1Cc2ccccc2C[C@H]1C(=O)NCC(=O)N[C@@H](Cc1ccccc1)C(=O)N1Cc2ccccc2C[C@H]1C(=O)N1Cc2ccccc2C[C@H]1C(=O)NCC(=O)N[C@@H](CCCCN)C(=O)N1Cc2ccccc2C[C@H]1C(=O)N[C@@H](CCCCN)C(=O)N[C@@H](CCCCN)C(=O)N[C@@H](CCCCN)C(=O)N[C@@H](CCCCN)C(N)=O [FKAB-1Gg2, Ac-GF-Tic-Tic-GK-Tic-Tic-GF-Tic-Tic-GK-Tic-KKKK-CONH2] (Ac-GF[Tic][Tic]GK[Tic][Tic]GF[Tic][Tic]GK[Tic]KKKK-NH2) | 10 |
| CC(=O)NCC(=O)N[C@@H](Cc1ccccc1)C(=O)N1[C@H](C(=O)N2Cc3ccccc3C[C@H]2C(=O)NCC(=O)N[C@@H](CCCCN)C(=O)N2[C@H](C(=O)N3Cc4ccccc4C[C@H]3C(=O)NCC(=O)N[C@@H](Cc3ccccc3)C(=O)N3[C@H](C(=O)N4Cc5ccccc5C[C@H]4C(=O)NCC(=O)N[C@@H](CCCCN)C(=O)N4Cc5ccccc5C[C@H]4C(=O)N[C@@H](CCCCN)C(=O)N[C@@H](CCCCN)C(=O)N[C@@H](CCCCN)C(=O)N[C@@H](CCCCN)C(N)=O)C[C@@H]4CCCC[C@@H]43)C[C@@H]3CCCC[C@@H]32)C[C@@H]2CCCC[C@@H]21 [FKABB-1G1, Ac-GF-Oic-Tic-GK-Oic-Tic-GF-Oic-Tic-GK-Tic-KKKK-CONH2] (Ac-GF[Oic][Tic]GK[Oic][Tic]GF[Oic][Tic]GK[Tic]KKKK-NH2) | 30 |
